In the kinase profiling compilation of Christmann-Franck et al. (2016):

Tests used:
Experiment in all cases: radiometric filter-binding kinase assay, Kinase HotSpot
Conditions in all cases: compound 0.5 µM; ATP 10 µM
AKT2 (human) = AKT2 (human) (UniProt P31751)
AURKB (human) = AURKB (human) (UniProt Q96GD4)
CAMK2G (human) = CAMK2G (human) (UniProt Q13555)
CDK7 CCNH MNAT1 (human) = CDK7 CCNH MNAT1 (human) (UniProt P50613+P51948+P51946)
CSF1R (human) = CSF1R (human) (UniProt P07333)
CSNK1G1 (human) = CSNK1G1 (human) (UniProt Q9HCP0)
DYRK3 (human) = DYRK3 (human) (UniProt O43781)
EPHA4 (human) = EPHA4 (human) (UniProt P54764)
EPHB1 (human) = EPHB1 (human) (UniProt P54762)
EPHB4 (human) = EPHB4 (human) (UniProt P54760)
ERBB4 (human) = ERBB4 (human) (UniProt Q15303)
HCK (human) = HCK (human) (UniProt P08631)
HIPK2 (human) = HIPK2 (human) (UniProt Q9H2X6)
INSRR (human) = INSRR (human) (UniProt P14616)
ITK (human) = ITK (human) (UniProt Q08881)
JAK2 JH1 JH2 (human) = JAK2 JH1 JH2 (human) (UniProt O60674)
MAP2K2 (human) = MAP2K2 (human) (UniProt P36507)
MAPK12 (human) = MAPK12 (human) (UniProt P53778)
MAPK12 (human), sequence (P53778 whole entry, looked up): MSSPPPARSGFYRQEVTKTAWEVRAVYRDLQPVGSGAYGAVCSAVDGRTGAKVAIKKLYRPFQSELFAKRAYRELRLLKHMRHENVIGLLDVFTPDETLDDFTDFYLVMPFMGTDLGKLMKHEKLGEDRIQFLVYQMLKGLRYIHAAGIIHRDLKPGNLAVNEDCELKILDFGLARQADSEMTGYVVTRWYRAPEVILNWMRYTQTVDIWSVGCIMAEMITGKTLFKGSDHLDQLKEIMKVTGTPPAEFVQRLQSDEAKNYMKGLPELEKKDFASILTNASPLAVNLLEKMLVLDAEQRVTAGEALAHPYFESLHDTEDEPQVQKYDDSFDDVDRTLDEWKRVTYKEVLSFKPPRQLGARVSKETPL

MAPK3 (human) = MAPK3 (human) (UniProt P27361)
MAPKAPK3 (human) = MAPKAPK3 (human) (UniProt Q16644)
MAPKAPK5 (human) = MAPKAPK5 (human) (UniProt Q8IW41)
MERTK (human) = MERTK (human) (UniProt Q12866)
MLTK (human) = MLTK (human) (UniProt Q9NYL2)
MLTK (human), sequence (Q9NYL2 whole entry, looked up): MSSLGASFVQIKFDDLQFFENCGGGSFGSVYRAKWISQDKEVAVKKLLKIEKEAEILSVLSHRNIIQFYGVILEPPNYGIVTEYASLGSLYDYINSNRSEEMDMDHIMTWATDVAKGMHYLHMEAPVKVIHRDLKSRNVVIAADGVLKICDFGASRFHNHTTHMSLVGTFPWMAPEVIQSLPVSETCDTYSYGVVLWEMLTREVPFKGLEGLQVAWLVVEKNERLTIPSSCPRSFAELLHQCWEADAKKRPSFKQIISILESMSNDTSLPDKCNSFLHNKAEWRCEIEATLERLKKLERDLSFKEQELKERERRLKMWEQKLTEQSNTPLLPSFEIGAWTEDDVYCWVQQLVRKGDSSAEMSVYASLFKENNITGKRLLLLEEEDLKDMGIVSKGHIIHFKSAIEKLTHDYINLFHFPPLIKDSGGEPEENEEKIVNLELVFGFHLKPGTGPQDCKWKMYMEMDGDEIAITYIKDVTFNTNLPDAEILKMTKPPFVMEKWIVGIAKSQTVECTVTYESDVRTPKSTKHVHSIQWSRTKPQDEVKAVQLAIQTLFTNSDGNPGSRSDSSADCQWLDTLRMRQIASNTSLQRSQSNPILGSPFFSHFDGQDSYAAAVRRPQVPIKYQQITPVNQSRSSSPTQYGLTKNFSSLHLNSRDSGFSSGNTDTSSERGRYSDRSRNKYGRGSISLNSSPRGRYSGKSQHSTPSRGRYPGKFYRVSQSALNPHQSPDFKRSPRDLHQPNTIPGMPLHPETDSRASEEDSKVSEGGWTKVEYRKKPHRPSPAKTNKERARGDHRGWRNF

NEK4 (human) = NEK4 (human) (UniProt P51957)
NUAK1 (human) = NUAK1 (human) (UniProt O60285)
NUAK2 (human) = NUAK2 (human) (UniProt Q9H093)
NUAK2 (human), sequence (Q9H093 whole entry, looked up): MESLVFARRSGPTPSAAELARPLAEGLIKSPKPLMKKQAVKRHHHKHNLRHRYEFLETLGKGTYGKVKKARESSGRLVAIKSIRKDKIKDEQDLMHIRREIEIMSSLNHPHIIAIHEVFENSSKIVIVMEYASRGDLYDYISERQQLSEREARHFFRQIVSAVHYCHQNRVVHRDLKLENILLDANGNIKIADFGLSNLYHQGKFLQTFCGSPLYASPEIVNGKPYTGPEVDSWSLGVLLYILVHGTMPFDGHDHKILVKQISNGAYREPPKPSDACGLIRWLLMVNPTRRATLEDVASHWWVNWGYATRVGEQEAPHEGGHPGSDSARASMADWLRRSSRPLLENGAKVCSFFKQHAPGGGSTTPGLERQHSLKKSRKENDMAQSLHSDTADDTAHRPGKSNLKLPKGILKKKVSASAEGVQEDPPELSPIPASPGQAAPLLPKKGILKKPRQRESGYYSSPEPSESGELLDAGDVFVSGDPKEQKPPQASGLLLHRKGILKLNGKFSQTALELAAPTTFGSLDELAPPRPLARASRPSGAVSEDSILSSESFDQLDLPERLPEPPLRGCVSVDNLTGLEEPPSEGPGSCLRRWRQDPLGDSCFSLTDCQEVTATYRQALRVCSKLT

PAK2 (human) = PAK2 (human) (UniProt Q13177)
PASK (human) = PASK (human) (UniProt Q96RG2)
PDGFRA (human) = PDGFRA (human) (UniProt P16234)
PDPK1 (human) = PDPK1 (human) (UniProt O15530)
PDPK1 (human), sequence (O15530 whole entry, looked up): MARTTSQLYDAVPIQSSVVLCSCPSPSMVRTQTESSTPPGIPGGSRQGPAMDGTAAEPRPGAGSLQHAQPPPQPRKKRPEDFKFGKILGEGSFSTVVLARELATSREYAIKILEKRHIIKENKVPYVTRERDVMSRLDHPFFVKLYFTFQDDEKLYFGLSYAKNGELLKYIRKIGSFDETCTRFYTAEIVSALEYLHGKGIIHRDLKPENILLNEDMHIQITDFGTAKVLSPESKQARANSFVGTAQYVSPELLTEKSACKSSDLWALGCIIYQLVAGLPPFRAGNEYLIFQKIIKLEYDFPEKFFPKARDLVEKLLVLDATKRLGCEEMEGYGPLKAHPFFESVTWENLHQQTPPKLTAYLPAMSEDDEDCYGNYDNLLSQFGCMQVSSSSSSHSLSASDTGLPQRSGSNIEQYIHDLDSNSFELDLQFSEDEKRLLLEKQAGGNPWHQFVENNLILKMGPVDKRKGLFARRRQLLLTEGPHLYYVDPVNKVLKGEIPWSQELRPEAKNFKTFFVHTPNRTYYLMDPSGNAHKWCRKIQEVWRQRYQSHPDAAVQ

PHKG2 (human) = PHKG2 (human) (UniProt P15735)
PKN1 (human) = PKN1 (human) (UniProt Q16512)
PKN1 (human), sequence (Q16512 whole entry, looked up): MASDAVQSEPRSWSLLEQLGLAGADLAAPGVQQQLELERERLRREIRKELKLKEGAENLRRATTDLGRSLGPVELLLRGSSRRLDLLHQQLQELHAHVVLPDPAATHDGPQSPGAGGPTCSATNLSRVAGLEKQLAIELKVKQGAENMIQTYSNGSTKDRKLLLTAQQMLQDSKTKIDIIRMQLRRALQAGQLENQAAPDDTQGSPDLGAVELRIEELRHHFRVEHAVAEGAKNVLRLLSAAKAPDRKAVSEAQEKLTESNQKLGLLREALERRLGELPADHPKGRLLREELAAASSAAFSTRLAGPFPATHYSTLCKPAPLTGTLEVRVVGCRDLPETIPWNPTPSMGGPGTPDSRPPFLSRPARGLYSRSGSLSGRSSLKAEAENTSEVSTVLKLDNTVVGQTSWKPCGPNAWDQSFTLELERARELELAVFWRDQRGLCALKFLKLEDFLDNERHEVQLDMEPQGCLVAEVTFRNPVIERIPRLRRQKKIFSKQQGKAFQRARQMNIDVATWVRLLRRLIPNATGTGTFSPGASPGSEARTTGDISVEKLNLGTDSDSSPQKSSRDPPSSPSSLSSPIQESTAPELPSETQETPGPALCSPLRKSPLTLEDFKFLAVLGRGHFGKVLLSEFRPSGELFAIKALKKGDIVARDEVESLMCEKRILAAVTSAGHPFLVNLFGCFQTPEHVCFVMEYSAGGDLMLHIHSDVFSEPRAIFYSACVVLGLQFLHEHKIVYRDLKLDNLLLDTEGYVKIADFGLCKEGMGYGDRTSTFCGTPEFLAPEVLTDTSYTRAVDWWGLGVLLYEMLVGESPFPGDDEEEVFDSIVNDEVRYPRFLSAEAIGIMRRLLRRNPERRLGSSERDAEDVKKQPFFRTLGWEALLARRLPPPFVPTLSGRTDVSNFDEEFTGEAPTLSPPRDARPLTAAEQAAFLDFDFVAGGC

PKN2 (human) = PKN2 (human) (UniProt Q16513)
PRKACA (human) = PRKACA (human) (UniProt P17612)
PRKCE (human) = PRKCE (human) (UniProt Q02156)
PTK2 (human) = PTK2 (human) (UniProt Q05397)
PTK2B (human) = PTK2B (human) (UniProt Q14289)
SGK3 (human) = SGK3 (human) (UniProt Q96BR1)
SRPK1 (human) = SRPK1 (human) (UniProt Q96SB4)
STK10 (human) = STK10 (human) (UniProt O94804)
WNK3 (human) = WNK3 (human) (UniProt Q9BYP7)
AXL (human) = AXL (human) (UniProt P30530)
AXL (human), sequence (P30530 whole entry, looked up): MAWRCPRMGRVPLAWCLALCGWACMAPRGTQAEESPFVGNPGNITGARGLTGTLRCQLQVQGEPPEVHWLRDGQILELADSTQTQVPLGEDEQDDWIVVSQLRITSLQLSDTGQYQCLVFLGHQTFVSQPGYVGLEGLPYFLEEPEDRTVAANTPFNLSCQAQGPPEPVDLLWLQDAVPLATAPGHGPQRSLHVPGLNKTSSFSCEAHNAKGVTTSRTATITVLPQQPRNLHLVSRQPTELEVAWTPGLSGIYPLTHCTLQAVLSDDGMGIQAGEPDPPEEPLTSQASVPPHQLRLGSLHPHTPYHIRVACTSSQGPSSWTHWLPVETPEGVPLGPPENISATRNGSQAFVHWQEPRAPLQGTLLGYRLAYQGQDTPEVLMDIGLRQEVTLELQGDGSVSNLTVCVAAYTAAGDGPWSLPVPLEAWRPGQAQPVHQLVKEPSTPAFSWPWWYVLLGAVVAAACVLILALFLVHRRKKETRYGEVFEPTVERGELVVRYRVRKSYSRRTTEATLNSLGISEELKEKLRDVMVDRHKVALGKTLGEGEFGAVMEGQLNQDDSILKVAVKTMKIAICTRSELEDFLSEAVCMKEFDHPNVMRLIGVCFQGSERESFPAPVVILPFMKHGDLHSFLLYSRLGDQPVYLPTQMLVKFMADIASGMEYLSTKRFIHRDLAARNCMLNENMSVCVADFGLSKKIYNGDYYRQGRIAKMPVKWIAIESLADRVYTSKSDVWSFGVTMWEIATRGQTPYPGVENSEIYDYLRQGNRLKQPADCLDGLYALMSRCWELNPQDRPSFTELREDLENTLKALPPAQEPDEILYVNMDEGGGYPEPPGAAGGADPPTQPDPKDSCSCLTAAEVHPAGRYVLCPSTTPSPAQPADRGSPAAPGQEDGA

AKT2 (human), sequence (P31751 whole entry, looked up): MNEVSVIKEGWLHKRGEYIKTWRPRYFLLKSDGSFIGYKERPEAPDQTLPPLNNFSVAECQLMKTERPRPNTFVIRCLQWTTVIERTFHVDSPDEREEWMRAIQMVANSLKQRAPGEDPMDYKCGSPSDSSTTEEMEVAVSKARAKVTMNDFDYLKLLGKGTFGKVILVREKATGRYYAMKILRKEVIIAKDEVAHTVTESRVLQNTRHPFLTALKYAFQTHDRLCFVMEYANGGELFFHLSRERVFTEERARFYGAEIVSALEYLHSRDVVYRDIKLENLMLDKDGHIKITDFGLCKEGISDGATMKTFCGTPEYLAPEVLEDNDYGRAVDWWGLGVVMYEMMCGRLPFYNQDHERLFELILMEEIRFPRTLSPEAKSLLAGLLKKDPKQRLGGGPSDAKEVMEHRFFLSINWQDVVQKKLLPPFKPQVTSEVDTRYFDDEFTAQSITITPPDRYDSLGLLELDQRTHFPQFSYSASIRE
AURKB (human), sequence (Q96GD4 whole entry, looked up): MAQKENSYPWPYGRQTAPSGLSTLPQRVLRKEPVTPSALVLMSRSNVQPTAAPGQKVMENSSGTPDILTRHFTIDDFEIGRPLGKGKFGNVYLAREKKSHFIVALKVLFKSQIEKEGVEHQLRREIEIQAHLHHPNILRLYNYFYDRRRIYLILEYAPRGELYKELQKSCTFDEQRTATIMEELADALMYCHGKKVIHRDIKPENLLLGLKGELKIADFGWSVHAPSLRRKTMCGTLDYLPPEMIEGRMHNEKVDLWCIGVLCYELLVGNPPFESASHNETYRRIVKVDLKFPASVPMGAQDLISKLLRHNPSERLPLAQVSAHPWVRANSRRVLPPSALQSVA

**Q.** What does the source list for Cc1ccc(S(=O)(=O)/C=C/C#N)cc1?
**A.** residual activity (AKT2 (human)): 94.9%; residual activity (AURKB (human)): 92.3%; residual activity (CAMK2G (human)): 103%; residual activity (CDK7 CCNH MNAT1 (human)): 98.2%; residual activity (CSF1R (human)): 93.6%; residual activity (CSNK1G1 (human)): 101%; residual activity (DYRK3 (human)): 101%; residual activity (EPHA4 (human)): 86.1%; residual activity (EPHB1 (human)): 100%; residual activity (EPHB4 (human)): 102%; residual activity (ERBB4 (human)): 99.7%; residual activity (HCK (human)): 100%; residual activity (HIPK2 (human)): 83.9%; residual activity (INSRR (human)): 98%; residual activity (ITK (human)): 102%; residual activity (JAK2 JH1 JH2 (human)): 99.5%; residual activity (MAP2K2 (human)): 91%; residual activity (MAPK12 (human)): 90.5%; residual activity (MAPK3 (human)): 98.2%; residual activity (MAPKAPK3 (human)): 97.8%; residual activity (MAPKAPK5 (human)): 88.9%; residual activity (MERTK (human)): 96.4%; residual activity (MLTK (human)): 94.7%; residual activity (NEK4 (human)): 94.3%; residual activity (NUAK1 (human)): 101%; residual activity (NUAK2 (human)): 88.4%; residual activity (PAK2 (human)): 102%; residual activity (PASK (human)): 99.3%; residual activity (PDGFRA (human)): 94.2%; residual activity (PDPK1 (human)): 102%; residual activity (PHKG2 (human)): 109%; residual activity (PKN1 (human)): 92.1%; residual activity (PKN2 (human)): 81.5%; residual activity (PRKACA (human)): 100%; residual activity (PRKCE (human)): 106%; residual activity (PTK2 (human)): 104%; residual activity (PTK2B (human)): 92.8%; residual activity (SGK3 (human)): 108%; residual activity (SRPK1 (human)): 99.7%; residual activity (STK10 (human)): 90.6%; residual activity (WNK3 (human)): 110%

**Q.** Which results are given for Cc1ccc(NC2=CC(=O)c3sc(C)nc3C2=O)cc1?
**A.** residual activity (AKT2 (human)): 91.3%; residual activity (AURKB (human)): 89.8%; residual activity (AXL (human)): 97%; residual activity (CAMK2G (human)): 90.4%; residual activity (CDK7 CCNH MNAT1 (human)): 95.4%; residual activity (CSF1R (human)): 89.9%; residual activity (CSNK1G1 (human)): 102%; residual activity (DYRK3 (human)): 96.2%; residual activity (EPHA4 (human)): 86.5%; residual activity (EPHB4 (human)): 89.7%; residual activity (ERBB4 (human)): 98.5%; residual activity (HCK (human)): 94.4%; residual activity (HIPK2 (human)): 98.5%; residual activity (INSRR (human)): 90%; residual activity (ITK (human)): 98.6%; residual activity (JAK2 JH1 JH2 (human)): 99.1%; residual activity (MAP2K2 (human)): 98.8%; residual activity (MAPK12 (human)): 99.3%; residual activity (MAPK3 (human)): 100%; residual activity (MAPKAPK3 (human)): 76.5%; residual activity (MAPKAPK5 (human)): 108%; residual activity (MERTK (human)): 80.5%; residual activity (MLTK (human)): 94%; residual activity (NEK4 (human)): 95.3%; residual activity (NUAK1 (human)): 93%; residual activity (NUAK2 (human)): 105%; residual activity (PAK2 (human)): 104%; residual activity (PASK (human)): 89.4%; residual activity (PDGFRA (human)): 85.9%; residual activity (PDPK1 (human)): 88.7%; residual activity (PHKG2 (human)): 96.3%; residual activity (PKN1 (human)): 98.9%; residual activity (PKN2 (human)): 115%; residual activity (PRKACA (human)): 95.9%; residual activity (PRKCE (human)): 96.3%; residual activity (PTK2 (human)): 102%; residual activity (PTK2B (human)): 90.2%; residual activity (SGK3 (human)): 95.2%; residual activity (SRPK1 (human)): 92.6%; residual activity (STK10 (human)): 95%; residual activity (WNK3 (human)): 102%

**Q.** Which results are given for Nc1ncnc2[nH]nc(Nc3ccc(F)cc3)c12?
**A.** residual activity (AKT2 (human)): 108%; residual activity (AURKB (human)): 96.9%; residual activity (AXL (human)): 45.4%; residual activity (CAMK2G (human)): 119%; residual activity (CDK7 CCNH MNAT1 (human)): 98.4%; residual activity (CSF1R (human)): 101%; residual activity (CSNK1G1 (human)): 83.3%; residual activity (DYRK3 (human)): 89%; residual activity (EPHA4 (human)): 90.1%; residual activity (EPHB4 (human)): 87.8%; residual activity (ERBB4 (human)): 121%; residual activity (HCK (human)): 90.7%; residual activity (HIPK2 (human)): 106%; residual activity (INSRR (human)): 96.9%; residual activity (ITK (human)): 93.9%; residual activity (JAK2 JH1 JH2 (human)): 105%; residual activity (MAP2K2 (human)): 90%; residual activity (MAPK12 (human)): 94.2%; residual activity (MAPK3 (human)): 105%; residual activity (MAPKAPK3 (human)): 94%; residual activity (MAPKAPK5 (human)): 80.9%; residual activity (MERTK (human)): 90.7%; residual activity (MLTK (human)): 88%; residual activity (NEK4 (human)): 92.8%; residual activity (NUAK1 (human)): 95.5%; residual activity (NUAK2 (human)): 90.4%; residual activity (PAK2 (human)): 103%; residual activity (PASK (human)): 91.8%; residual activity (PDGFRA (human)): 101%; residual activity (PDPK1 (human)): 102%; residual activity (PHKG2 (human)): 101%; residual activity (PKN1 (human)): 102%; residual activity (PKN2 (human)): 82%; residual activity (PRKACA (human)): 96.8%; residual activity (PRKCE (human)): 99.5%; residual activity (PTK2 (human)): 103%; residual activity (PTK2B (human)): 101%; residual activity (SGK3 (human)): 102%; residual activity (SRPK1 (human)): 104%; residual activity (STK10 (human)): 70.5%; residual activity (WNK3 (human)): 103%

**Q.** What does the source list for CC#CC(=O)Nc1cc2c(Nc3ccc(F)c(Cl)c3)ncnc2cn1?
**A.** residual activity (AURKB (human)): 101%; residual activity (AXL (human)): 100%; residual activity (CAMK2G (human)): 97.7%; residual activity (CDK7 CCNH MNAT1 (human)): 101%; residual activity (CSF1R (human)): 101%; residual activity (CSNK1G1 (human)): 95.5%; residual activity (DYRK3 (human)): 101%; residual activity (EPHA4 (human)): 94.6%; residual activity (EPHB1 (human)): 92%; residual activity (EPHB4 (human)): 83.4%; residual activity (ERBB4 (human)): 1.95%; residual activity (HCK (human)): 92.2%; residual activity (HIPK2 (human)): 101%; residual activity (INSRR (human)): 101%; residual activity (ITK (human)): 76.3%; residual activity (JAK2 JH1 JH2 (human)): 97.4%; residual activity (MAP2K2 (human)): 106%; residual activity (MAPK12 (human)): 99.4%; residual activity (MAPK3 (human)): 100%; residual activity (MAPKAPK3 (human)): 105%; residual activity (MAPKAPK5 (human)): 96.3%; residual activity (MERTK (human)): 84.5%; residual activity (MLTK (human)): 85.8%; residual activity (NEK4 (human)): 85.8%; residual activity (NUAK1 (human)): 98.1%; residual activity (NUAK2 (human)): 95.4%; residual activity (PAK2 (human)): 105%; residual activity (PASK (human)): 101%; residual activity (PDGFRA (human)): 94.9%; residual activity (PDPK1 (human)): 99.6%; residual activity (PHKG2 (human)): 99%; residual activity (PKN1 (human)): 101%; residual activity (PKN2 (human)): 95%; residual activity (PRKACA (human)): 97.7%; residual activity (PRKCE (human)): 88.3%; residual activity (PTK2 (human)): 102%; residual activity (PTK2B (human)): 94.1%; residual activity (SGK3 (human)): 100%; residual activity (SRPK1 (human)): 94.8%; residual activity (STK10 (human)): 72.6%; residual activity (WNK3 (human)): 95.1%
